These compounds were tested against T1, Estrogen receptor beta (Homo sapiens, UniProt Q92731).
T1 sequence (Q92731 whole entry): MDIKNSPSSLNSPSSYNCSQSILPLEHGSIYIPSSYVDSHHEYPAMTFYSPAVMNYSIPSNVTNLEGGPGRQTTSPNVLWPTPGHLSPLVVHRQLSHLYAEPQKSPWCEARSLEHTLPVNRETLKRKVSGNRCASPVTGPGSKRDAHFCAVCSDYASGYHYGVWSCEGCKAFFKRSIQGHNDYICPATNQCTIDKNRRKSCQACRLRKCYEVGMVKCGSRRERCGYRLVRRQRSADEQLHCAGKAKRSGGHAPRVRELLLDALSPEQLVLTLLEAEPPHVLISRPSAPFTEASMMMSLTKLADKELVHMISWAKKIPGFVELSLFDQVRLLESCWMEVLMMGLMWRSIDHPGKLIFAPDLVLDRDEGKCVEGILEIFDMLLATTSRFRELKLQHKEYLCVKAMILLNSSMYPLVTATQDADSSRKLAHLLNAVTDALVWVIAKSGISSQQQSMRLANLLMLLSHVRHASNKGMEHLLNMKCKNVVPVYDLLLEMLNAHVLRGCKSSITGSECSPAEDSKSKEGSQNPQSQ

Compound | IC50 [µM]
CCOc1cc(O)cc2ncn(-c3ccc(O)cc3)c(=O)c12 | 44.3
O=c1c2c(O)cc(O)cc2ncn1-c1cccc(O)c1 | 3.84
CCc1nc2cc(O)cc(O)c2c(=O)n1-c1ccc(O)cc1 | 5.75
CC(C)c1nc2cc(O)cc(O)c2c(=O)n1-c1ccc(O)cc1 | 48.1
Cc1cc(O)ccc1-n1cnc2cc(O)cc(O)c2c1=O | 0.422
O=c1c2c(O)cc(O)cc2ncn1-c1ccc(O)c(Cl)c1 | 7.21
CCc1cc(O)cc2ncn(-c3ccc(O)cc3)c(=O)c12 | 0.265
O=c1c2ccc(O)cc2ncn1-c1ccc(O)cc1 | 8.61
CCCc1c(O)cc2ncn(-c3ccc(O)cc3)c(=O)c2c1O | 7.3
Oc1ccc(-n2cnc3cc(O)cc(O)c3c2=S)nc1 | 0.515
COC(=O)c1cc(O)cc2ncn(-c3ccc(O)cc3)c(=O)c12 | 9.54
C=Cc1cc(O)cc2ncn(-c3ccc(O)cc3)c(=O)c12 | 17
O=c1c2c(O)cc(O)c(I)c2ncn1-c1ccc(O)cc1 | 4.08
O=c1c2c(O)cc(O)cc2ncn1-c1ccc(O)cc1 | 0.179
Cc1nc2cc(O)cc(O)c2c(=O)n1-c1ccc(O)cc1 | 11.4
N#Cc1cc(O)cc2ncn(-c3ccc(O)cc3)c(=O)c12 | 73.7
CCc1cc(O)cc2ncn(-c3ccc(O)cc3)c(=S)c12 | 0.156
O=c1c2c(O)cc(O)cc2ncn1-c1ccc(O)cc1Cl | 0.263
Cc1cc(-n2cnc3cc(O)cc(O)c3c2=S)ccc1O | 0.658
Nc1cc(O)cc2ncn(-c3ccc(O)cc3)c(=O)c12 | 8.24
O=c1c2c(O)c(I)c(O)cc2ncn1-c1ccc(O)cc1 | 3.97
Cc1cc(O)cc2ncn(-c3ccc(O)cc3)c(=O)c12 | 0.317
O=c1c2c(O)cc(O)cc2[nH]c(=S)n1-c1ccc(O)cc1 | 6.99

Compound | IC50 [µM]
O=c1c2c(O)cc(O)cc2ncn1-c1ccc(O)nc1 | 51.7
CCCc1nc2cc(O)cc(O)c2c(=O)n1-c1ccc(O)cc1 | 3.22
O=c1c2c(O)cc(O)cc2ncn1-c1ccc(O)cn1 | 3.53
O=c1c2c(O)c(I)c(O)c(I)c2ncn1-c1ccc(O)cc1 | 12.3
O=c1c2c(O)cc(O)cc2ncn1-c1ccc(O)c(F)c1 | 0.65
COc1cc(O)c2c(=O)n(-c3ccc(O)cc3)c(=S)[nH]c2c1 | 72.8
O=c1[nH]c2cc(O)cc(O)c2c(=O)n1-c1ccc(O)cc1 | 9.38
CCCCc1nc2cc(O)cc(O)c2c(=O)n1-c1ccc(O)cc1 | 0.249
Oc1cc(O)c2c(=S)n(-c3ccc(O)c(F)c3)cnc2c1 | 0.102
Oc1ccc(-n2cnc3cc(O)cc(O)c3c2=S)cc1 | 0.047
O=c1c2c(O)cc(O)cc2nc(Cl)n1-c1ccc(O)cc1 | 13.4
O=c1c2c(O)cc(O)cc2ncn1-c1ccc(O)cc1F | 0.256
O=c1c2c(O)cc(O)cc2ncn1-c1ccccc1 | 18.5
O=c1c2c(OS(=O)(=O)C(F)(F)F)cc(O)cc2ncn1-c1ccc(O)cc1 | 12
COc1cc(O)c2c(=O)n(-c3ccc(O)cc3)cnc2c1 | 9.53
Cc1cc(-n2cnc3cc(O)cc(O)c3c2=O)ccc1O | 7.49
Cc1cc(O)cc2ncn(-c3ccc(O)cc3)c(=S)c12 | 0.079
O=c1c2c(CO)cc(O)cc2ncn1-c1ccc(O)cc1 | 0.024
Cc1c(O)cc(O)c2c(=O)n(-c3ccc(O)cc3)cnc12 | 1.27
C=C(C)c1cc(O)cc2ncn(-c3ccc(O)cc3)c(=O)c12 | 2.3
O=c1c2ccc(O)cc2nc(-c2ccc(O)cc2)n1-c1ccc(O)cc1 | 441
O=c1c2c(-c3ccccc3)cc(O)cc2ncn1-c1ccc(O)cc1 | 30.7
Oc1ccc(-c2coc3cc(O)cc(O)c3c2=S)cc1 [THIOGENISTEIN] | 1.34

What follows are compounds tested against T2, Estrogen receptor (Homo sapiens, UniProt P03372).
T2 sequence (P03372 whole entry): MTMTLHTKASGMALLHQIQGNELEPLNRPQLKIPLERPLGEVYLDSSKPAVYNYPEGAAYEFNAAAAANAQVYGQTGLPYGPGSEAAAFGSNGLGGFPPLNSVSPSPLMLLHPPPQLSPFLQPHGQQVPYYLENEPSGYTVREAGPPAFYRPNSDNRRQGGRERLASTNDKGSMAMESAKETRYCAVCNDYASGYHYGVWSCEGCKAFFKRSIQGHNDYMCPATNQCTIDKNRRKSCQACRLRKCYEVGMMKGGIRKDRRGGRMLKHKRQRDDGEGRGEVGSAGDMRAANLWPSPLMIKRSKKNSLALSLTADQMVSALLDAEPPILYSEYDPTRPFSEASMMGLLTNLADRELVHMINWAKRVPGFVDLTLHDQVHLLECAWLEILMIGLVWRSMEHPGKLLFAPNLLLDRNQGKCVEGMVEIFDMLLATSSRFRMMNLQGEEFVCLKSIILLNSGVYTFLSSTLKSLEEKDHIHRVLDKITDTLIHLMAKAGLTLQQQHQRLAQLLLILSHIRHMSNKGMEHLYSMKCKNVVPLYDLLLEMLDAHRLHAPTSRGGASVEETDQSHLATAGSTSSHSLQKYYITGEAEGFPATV
Description: Displacement of [3H]estrone from ER alpha

Compound | IC50 [µM]
O=c1c2c(O)cc(O)cc2ncn1-c1cccc(O)c1 | 43.8
CCc1nc2cc(O)cc(O)c2c(=O)n1-c1ccc(O)cc1 | 19.4
CC(C)c1nc2cc(O)cc(O)c2c(=O)n1-c1ccc(O)cc1 | 70.4
Cc1cc(O)ccc1-n1cnc2cc(O)cc(O)c2c1=O | 4.38
O=c1c2c(O)cc(O)cc2ncn1-c1ccc(O)c(Cl)c1 | 55
CCc1cc(O)cc2ncn(-c3ccc(O)cc3)c(=O)c12 | 13.2
O=c1c2ccc(O)cc2ncn1-c1ccc(O)cc1 | 53.6
CCCc1c(O)cc2ncn(-c3ccc(O)cc3)c(=O)c2c1O | 10.6
Oc1ccc(-n2cnc3cc(O)cc(O)c3c2=S)nc1 | 27.6
COC(=O)c1cc(O)cc2ncn(-c3ccc(O)cc3)c(=O)c12 | 81.3
O=c1c2c(O)cc(O)cc2ncn1-c1ccc(O)cc1 | 11.1
Cc1nc2cc(O)cc(O)c2c(=O)n1-c1ccc(O)cc1 | 33.2
CCc1cc(O)cc2ncn(-c3ccc(O)cc3)c(=S)c12 | 2.26
O=c1c2c(O)cc(O)cc2ncn1-c1ccc(O)cc1Cl | 6.25
Cc1cc(-n2cnc3cc(O)cc(O)c3c2=S)ccc1O | 2.85
Nc1cc(O)cc2ncn(-c3ccc(O)cc3)c(=O)c12 | 15.5
Cc1cc(O)cc2ncn(-c3ccc(O)cc3)c(=O)c12 | 9.63
O=c1c2c(O)cc(O)cc2[nH]c(=S)n1-c1ccc(O)cc1 | 11.1
O=c1c2c(O)cc(O)cc2ncn1-c1ccc(O)nc1 | 66.9

Compound | IC50 [µM]
CCCc1nc2cc(O)cc(O)c2c(=O)n1-c1ccc(O)cc1 | 5.36
O=c1c2c(O)cc(O)cc2ncn1-c1ccc(O)cn1 | 98
O=c1c2c(O)cc(O)cc2ncn1-c1ccc(O)c(F)c1 | 44.2
O=c1[nH]c2cc(O)cc(O)c2c(=O)n1-c1ccc(O)cc1 | 70.3
CCCCc1nc2cc(O)cc(O)c2c(=O)n1-c1ccc(O)cc1 | 0.178
Oc1cc(O)c2c(=S)n(-c3ccc(O)c(F)c3)cnc2c1 | 3.08
Oc1ccc(-n2cnc3cc(O)cc(O)c3c2=S)cc1 | 2.64
O=c1c2c(O)cc(O)cc2ncn1-c1ccc(O)cc1F | 7.48
O=c1c2c(O)cc(O)cc2ncn1-c1ccccc1 | 75.6
COc1cc(O)c2c(=O)n(-c3ccc(O)cc3)cnc2c1 | 26
Cc1cc(-n2cnc3cc(O)cc(O)c3c2=O)ccc1O | 34.6
Cc1cc(O)cc2ncn(-c3ccc(O)cc3)c(=S)c12 | 1.75
O=c1c2c(CO)cc(O)cc2ncn1-c1ccc(O)cc1 | 0.121
Cc1c(O)cc(O)c2c(=O)n(-c3ccc(O)cc3)cnc12 | 15.3
C=C(C)c1cc(O)cc2ncn(-c3ccc(O)cc3)c(=O)c12 | 44
O=c1c2ccc(O)cc2nc(-c2ccc(O)cc2)n1-c1ccc(O)cc1 | 48.5
O=c1c2c(-c3ccccc3)cc(O)cc2ncn1-c1ccc(O)cc1 | 102
Oc1ccc(-c2coc3cc(O)cc(O)c3c2=S)cc1 [THIOGENISTEIN] | 55.9

Biological target: T1, Estrogen receptor beta
Remark: another data set of the same source
Description: Inhibition of ER beta-mediated transactivation of ERE in HeLa cell luciferase assay

Compound | EC50 [µM]
O=c1c2c(O)cc(O)cc2ncn1-c1cccc(O)c1 | 0.904
CCc1nc2cc(O)cc(O)c2c(=O)n1-c1ccc(O)cc1 | 1.26
Cc1cc(O)ccc1-n1cnc2cc(O)cc(O)c2c1=O | 0.111
O=c1c2c(O)cc(O)cc2ncn1-c1ccc(O)c(Cl)c1 | 1.18
CCc1cc(O)cc2ncn(-c3ccc(O)cc3)c(=O)c12 | 0.062
O=c1c2ccc(O)cc2ncn1-c1ccc(O)cc1 | 0.961
Oc1ccc(-n2cnc3cc(O)cc(O)c3c2=S)nc1 | 0.173
COC(=O)c1cc(O)cc2ncn(-c3ccc(O)cc3)c(=O)c12 | 9.41
C=Cc1cc(O)cc2ncn(-c3ccc(O)cc3)c(=O)c12 | 0.75
O=c1c2c(O)cc(O)c(I)c2ncn1-c1ccc(O)cc1 | 0.593
O=c1c2c(O)cc(O)cc2ncn1-c1ccc(O)cc1 | 0.076
Cc1nc2cc(O)cc(O)c2c(=O)n1-c1ccc(O)cc1 | 1.58
N#Cc1cc(O)cc2ncn(-c3ccc(O)cc3)c(=O)c12 | 7.58
CCc1cc(O)cc2ncn(-c3ccc(O)cc3)c(=S)c12 | 0.053
O=c1c2c(O)cc(O)cc2ncn1-c1ccc(O)cc1Cl | 0.251
Cc1cc(-n2cnc3cc(O)cc(O)c3c2=S)ccc1O | 0.16
Nc1cc(O)cc2ncn(-c3ccc(O)cc3)c(=O)c12 | 2.06
O=c1c2c(O)c(I)c(O)cc2ncn1-c1ccc(O)cc1 | 1.64
Cc1cc(O)cc2ncn(-c3ccc(O)cc3)c(=O)c12 | 0.136
O=c1c2c(O)cc(O)cc2[nH]c(=S)n1-c1ccc(O)cc1 | 1.99
O=c1c2c(O)cc(O)cc2ncn1-c1ccc(O)nc1 | 9.76

Compound | EC50 [µM]
O=c1c2c(O)cc(O)cc2ncn1-c1ccc(O)cn1 | 0.358
O=c1c2c(O)c(I)c(O)c(I)c2ncn1-c1ccc(O)cc1 | 1.97
O=c1c2c(O)cc(O)cc2ncn1-c1ccc(O)c(F)c1 | 0.117
COc1cc(O)c2c(=O)n(-c3ccc(O)cc3)c(=S)[nH]c2c1 | 3.84
O=c1[nH]c2cc(O)cc(O)c2c(=O)n1-c1ccc(O)cc1 | 1.31
Oc1cc(O)c2c(=S)n(-c3ccc(O)c(F)c3)cnc2c1 | 0.02
Oc1ccc(-n2cnc3cc(O)cc(O)c3c2=S)cc1 | 0.013
O=c1c2c(O)cc(O)cc2nc(Cl)n1-c1ccc(O)cc1 | 8.78
O=c1c2c(O)cc(O)cc2ncn1-c1ccc(O)cc1F | 0.19
O=c1c2c(O)cc(O)cc2ncn1-c1ccccc1 | 1.72
O=c1c2c(OS(=O)(=O)C(F)(F)F)cc(O)cc2ncn1-c1ccc(O)cc1 | 3.8
COc1cc(O)c2c(=O)n(-c3ccc(O)cc3)cnc2c1 | 8.51
Cc1cc(-n2cnc3cc(O)cc(O)c3c2=O)ccc1O | 1.25
Cc1cc(O)cc2ncn(-c3ccc(O)cc3)c(=S)c12 | 0.222
O=c1c2c(CO)cc(O)cc2ncn1-c1ccc(O)cc1 | 4.46
Cc1c(O)cc(O)c2c(=O)n(-c3ccc(O)cc3)cnc12 | 8.87
COC(=O)c1cc(OC(C)=O)cc2ncn(-c3ccc(OC(C)=O)cc3)c(=S)c12 | 11.3
C=C(C)c1cc(O)cc2ncn(-c3ccc(O)cc3)c(=O)c12 | 0.729
O=c1c2c(-c3ccccc3)cc(O)cc2ncn1-c1ccc(O)cc1 | 11.7
COc1cc(O)cc2ncn(-c3ccc(O)cc3)c(=O)c12 | 8.51
Oc1ccc(-c2coc3cc(O)cc(O)c3c2=S)cc1 [THIOGENISTEIN] | 0.014

— ChEMBL document CHEMBL1146098, “Synthesis and characterization of 3-arylquinazolinone and 3-arylquinazolinethione derivatives as selective estrogen receptor beta modulators” (J Med Chem, 2006)
